Experimental data reported in ChEMBL document CHEMBL3102830, “Involvement of apoptosis and autophagy in the death of RPMI 8226 multiple myeloma cells by two enantiomeric sigma receptor ligands” (Bioorg Med Chem, 2014).
Each block holds one compound with its values, some of them ahead of it. Activity calls are given as the source filed them. The rule behind the calls is not given here.

Assays:
[1] = system: RPMI-8226; assay: Induction of apoptosis in human RPMI8226 cells assessed as dead cells at 36 uM after 48 hrs by annexin V-FITC/propidium iodide staining-based flow cytometric analysis in presence of apoptosis inhibitor 2,2'-methylenebis(1,3-cyclohexandione) relative to control; assay type: functional
[2] = system: RPMI-8226; assay: Induction of apoptosis in human RPMI8226 cells assessed as dead cells at 36 uM after 48 hrs by annexin V-FITC/propidium iodide staining-based flow cytometric analysis relative to control; assay type: functional
[3] = system: RPMI-8226; assay: Induction of apoptosis in human RPMI8226 cells at 36 uM after 48 hrs by annexin V-FITC/propidium iodide staining-based flow cytometric analysis in presence of caspase inhibitor z-VAD-FMK; assay type: functional, cell-based
[4] = system: RPMI-8226; assay: Induction of apoptosis in human RPMI8226 cells assessed as decrease in Bid protein expression at 36 uM up to 96 hrs by Western blotting analysis; assay type: functional, cell-based
[5] = system: RPMI-8226; assay: Induction of apoptosis in human RPMI8226 cells assessed as increase in Bcl2 protein expression at 36 uM by Western blotting analysis; assay type: functional, cell-based; settings: TDE = time-dependent effect
[6] = system: RPMI-8226; assay: Induction of apoptosis in human RPMI8226 cells assessed as decrease in Bax protein expression at 36 uM by Western blotting analysis; assay type: functional, cell-based; settings: TDE = time-dependent effect
[7] = system: RPMI-8226; assay: Induction of apoptosis in human RPMI8226 cells assessed as caspase-9 protein expression at 36 uM after 6 to 96 hrs by Western blotting analysis; assay type: functional, cell-based
[8] = system: RPMI-8226; assay: Induction of apoptosis in human RPMI8226 cells assessed as PARP-1 cleavage at 36 uM after 6 hrs by Western blotting analysis; assay type: functional, cell-based
[9] = system: RPMI-8226; assay: Induction of apoptosis in human RPMI8226 cells assessed as caspase-8 cleavage at 36 uM after 6 to 96 hrs by Western blotting analysis; assay type: functional, cell-based
[10] = system: RPMI-8226; assay: Induction of apoptosis in human RPMI8226 cells assessed as caspase-9 activation at 36 uM by flow cytometric analysis in presence of […]; assay type: functional, cell-based; settings: TDE = time-dependent effect
[11] = system: RPMI-8226; assay: Induction of apoptosis in human RPMI8226 cells assessed as caspase-8 activation at 36 uM by flow cytometric analysis in presence of FITC-IETD-FMK; assay type: functional, cell-based; settings: TDE = time-dependent effect
[12] = system: RPMI-8226; assay: Induction of apoptosis in human RPMI8226 cells assessed as caspase-3 activation at 36 uM by flow cytometric analysis in presence of […]; assay type: functional, cell-based; settings: TDE = time-dependent effect
[13] = system: RPMI-8226; assay: Induction of apoptosis in human RPMI8226 cells assessed as chromatin condensation at 36 uM after 24 to 48 hrs by DAPI staining-based fluorescence microscopic analysis; assay type: functional, cell-based
[14] = system: RPMI-8226; assay: Induction of apoptosis in human RPMI8226 cells assessed as increase in apoptotic cells at 36 uM after 24 to 48 hrs by annexin V-FITC/propidium iodide staining-based flow cytometric analysis; assay type: functional, cell-based
[15] = system: RPMI-8226; assay: Induction of apoptosis in human RPMI8226 cells at 36 uM after 6 hrs by annexin V-FITC/propidium iodide staining-based flow cytometric analysis; assay type: functional, cell-based
[16] = system: HL-60; assay: Cytotoxicity against human HL60 cells assessed as cell viability at 20 uM after 72 hrs by MTT assay; assay type: functional, cell-based
[17] = system: RPMI-8226; assay: Cytotoxicity against human RPMI8226 cells assessed as cell viability after 72 hrs by MTT assay; assay type: functional, cell-based; settings: for IC50: RPMI-8226, 72 h
[18] = system: RPMI-8226; assay: Selectivity ratio of Ki for sigma-2 receptor in human RT4 cell homogenates to Ki for sigma-1 receptor in human RPMI8226 cells; assay type: cell-based
[19] = Selectivity ratio of Ki for sigma-2 receptor in rat liver homogenates to Ki for sigma-1 receptor in guinea pig brain homogenates; assay type: tissue-based
[20] = Displacement of [3H]-DTG from sigma-2 receptor in human RT4 cell homogenates in presence of (+)-pentazocine; assay type: tissue-based; settings: rt-4
[21] = Displacement of [3H]-DTG from sigma-2 receptor in rat liver homogenates in presence of (+)-pentazocine; assay type: tissue-based
[22] = molecular target: Sigma non-opioid intracellular receptor 1 (Homo sapiens, UniProt Q99720); assay: Displacement of [3H]-(+)-pentazocine from sigma-1 receptor in human RPMI8226 cells; assay type: cell-based, RPMI-8226
[23] = molecular target: Sigma non-opioid intracellular receptor 1 (Cavia porcellus, UniProt Q60492); assay: Displacement of [3H]-(+)-pentazocine from sigma-1 receptor in guinea pig brain homogenates; assay type: tissue-based
[24] = system: RPMI-8226; assay: Induction of autophagy in human RPMI8226 cells assessed as […] at 36 uM by Western blotting analysis; assay type: functional, cell-based; settings: TDE = time-dependent effect
[25] = system: RPMI-8226; assay: Induction of apoptosis in human RPMI8226 cells assessed as early apoptotic cells at 36 uM after 48 hrs by annexin V-FITC/propidium iodide staining-based flow cytometric analysis in presence of wortmannin; assay type: functional, cell-based
[26] = system: RPMI-8226; assay: Induction of apoptosis in human RPMI8226 cells assessed as early apoptotic cells at 36 uM after 48 hrs by annexin V-FITC/propidium iodide staining-based flow cytometric analysis; assay type: functional, cell-based
[27] = system: RPMI-8226; assay: Induction of autophagy in human RPMI8226 cells assessed as p62 protein expression at 36 uM after 6 to 96 hrs by Western blotting analysis; assay type: functional, cell-based
[28] = system: RPMI-8226; assay: Induction of apoptosis in human RPMI8226 cells assessed as early/late apoptotic cells at 36 uM after 48 hrs by annexin V/propidium iodide staining-based flow cytometric analysis in presence of alpha-tocopherol; assay type: functional, cell-based
[29] = system: RPMI-8226; assay: Induction of apoptosis in human RPMI8226 cells assessed as early apoptotic cells at 36 uM after 48 hrs by annexin V/propidium iodide staining-based flow cytometric analysis; assay type: functional, cell-based
[30] = system: RPMI-8226; assay: Induction of apoptosis in human RPMI8226 cells assessed as early apoptotic cells at 36 uM after 24 hrs by annexin V/propidium iodide staining-based flow cytometric analysis; assay type: functional, cell-based
[31] = system: RPMI-8226; assay: Induction of apoptosis in human RPMI8226 cells assessed as early apoptotic cells at 36 uM after 24 hrs by annexin V/propidium iodide staining-based flow cytometric analysis in presence of alpha-tocopherol; assay type: functional, cell-based
[32] = system: RPMI-8226; assay: Induction of apoptosis in human RPMI8226 cells assessed as caspase-9 activation at 23 uM by flow cytometric analysis in presence of […]; assay type: functional, cell-based; settings: TDE = time-dependent effect
[33] = system: RPMI-8226; assay: Induction of apoptosis in human RPMI8226 cells assessed as caspase-8 activation at 23 uM by flow cytometric analysis in presence of FITC-IETD-FMK; assay type: functional, cell-based; settings: TDE = time-dependent effect
[34] = system: RPMI-8226; assay: Induction of apoptosis in human RPMI8226 cells assessed as caspase-3 activation at 23 uM by flow cytometric analysis in presence of […]; assay type: functional, cell-based; settings: TDE = time-dependent effect
[35] = system: RPMI-8226; assay: Induction of apoptosis in human RPMI8226 cells assessed as chromatin condensation at 23 uM after 24 to 48 hrs by DAPI staining-based fluorescence microscopic analysis; assay type: functional, cell-based
[36] = system: RPMI-8226; assay: Induction of apoptosis in human RPMI8226 cells assessed as increase in apoptotic cells at 23 uM after 24 to 48 hrs by annexin V-FITC/propidium iodide staining-based flow cytometric analysis; assay type: functional, cell-based
[37] = system: RPMI-8226; assay: Induction of apoptosis in human RPMI8226 cells at 23 uM after 6 hrs by annexin V-FITC/propidium iodide staining-based flow cytometric analysis; assay type: functional, cell-based
[38] = system: RPMI-8226; assay: Induction of apoptosis in human RPMI8226 cells assessed as early apoptotic cells at 23 uM after 48 hrs by annexin V-FITC/propidium iodide staining-based flow cytometric analysis in presence of wortmannin; assay type: functional, cell-based
[39] = system: RPMI-8226; assay: Induction of apoptosis in human RPMI8226 cells assessed as early apoptotic cells at 23 uM after 48 hrs by annexin V-FITC/propidium iodide staining-based flow cytometric analysis; assay type: functional, cell-based
[40] = system: RPMI-8226; assay: Induction of autophagy in human RPMI8226 cells assessed as p62 protein expression at 23 uM after 48 hrs by Western blotting analysis in presence of wortmannin; assay type: functional, cell-based
[41] = system: RPMI-8226; assay: Induction of autophagy in human RPMI8226 cells assessed as p62 protein expression at 23 uM after 48 hrs by Western blotting analysis in presence of 3-methyladenine; assay type: functional, cell-based
[42] = system: RPMI-8226; assay: Induction of autophagy in human RPMI8226 cells assessed as […] protein expression at 23 uM after 48 hrs by Western blotting analysis in presence of wortmannin; assay type: functional, cell-based
[43] = system: RPMI-8226; assay: Induction of autophagy in human RPMI8226 cells assessed as […] protein expression at 23 uM after 48 hrs by Western blotting analysis in presence of 3-methyladenine; assay type: functional, cell-based
[44] = system: RPMI-8226; assay: Induction of autophagy in human RPMI8226 cells assessed as p62 protein level at 23 uM after 6 to 96 hrs by Western blotting analysis in presence of alpha-tocopherol; assay type: functional, cell-based
[45] = system: RPMI-8226; assay: Induction of autophagy in human RPMI8226 cells assessed as […] protein level at 23 uM after 6 to 96 hrs by Western blotting analysis in presence of alpha-tocopherol; assay type: functional, cell-based
[46] = system: RPMI-8226; assay: Induction of autophagy in human RPMI8226 cells assessed as p62 protein expression at 23 uM after 6 to 96 hrs by Western blotting analysis; assay type: functional, cell-based
[47] = system: RPMI-8226; assay: Induction of autophagy in human RPMI8226 cells assessed as […] at 23 uM by Western blotting analysis; assay type: functional, cell-based; settings: TDE = time-dependent effect
[48] = system: RPMI-8226; assay: Induction of apoptosis in human RPMI8226 cells assessed as early/late apoptotic cells at 23 uM after 48 hrs by annexin V/propidium iodide staining-based flow cytometric analysis in presence of alpha-tocopherol; assay type: functional, cell-based
[49] = system: RPMI-8226; assay: Induction of apoptosis in human RPMI8226 cells assessed as early apoptotic cells at 23 uM after 24 to 48 hrs by annexin V/propidium iodide staining-based flow cytometric analysis in presence of alpha-tocopherol; assay type: functional, cell-based
[50] = system: RPMI-8226; assay: Induction of apoptosis in human RPMI8226 cells assessed as decrease in mitochondrial membrane potential at 23 uM by JC-1 staining-based flow cytometric analysis; assay type: functional, cell-based; settings: TDE = time-dependent effect
[51] = system: RPMI-8226; assay: Induction of reactive oxygen species generation in human RPMI8226 cells at 23 uM after 0.5 to 24 hrs by DCFDA dye-based flow cytometric analysis; assay type: functional, cell-based
[52] = system: RPMI-8226; assay: Induction of lipid peroxidation in human RPMI8226 cells at 23 uM after 5 to 24 hrs by flow cytometric analysis in presence of alpha-tocopherol; assay type: functional, cell-based
[53] = system: RPMI-8226; assay: Induction of lipid peroxidation in human RPMI8226 cells at 23 uM after 5 to 24 hrs by flow cytometric analysis; assay type: functional, cell-based

Sigma non-opioid intracellular receptor 1 (Cavia porcellus, UniProt Q60492), sequence (Q60492 whole entry): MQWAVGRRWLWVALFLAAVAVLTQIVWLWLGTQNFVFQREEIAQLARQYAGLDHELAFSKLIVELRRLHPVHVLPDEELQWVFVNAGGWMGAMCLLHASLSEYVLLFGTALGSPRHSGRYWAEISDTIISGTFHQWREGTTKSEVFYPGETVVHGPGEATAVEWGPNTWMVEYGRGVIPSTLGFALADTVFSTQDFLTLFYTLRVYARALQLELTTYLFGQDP
Sigma non-opioid intracellular receptor 1 (Homo sapiens, UniProt Q99720), sequence (Q99720 whole entry): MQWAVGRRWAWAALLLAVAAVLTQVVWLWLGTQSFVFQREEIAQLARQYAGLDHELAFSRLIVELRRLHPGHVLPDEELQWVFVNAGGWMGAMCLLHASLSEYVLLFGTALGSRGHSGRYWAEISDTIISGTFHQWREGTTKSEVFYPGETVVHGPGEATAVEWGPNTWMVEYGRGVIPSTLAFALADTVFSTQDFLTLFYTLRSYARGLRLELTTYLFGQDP

SMILES: OCC[C@H]1CN(CC2CCCCC2)CCN1Cc1ccc(-c2ccccc2)cc1
Activity [1]: 21% | Activity [2]: 18% | Activity [3]: Active | Activity [4]: inactive | Activity [5]: tde | Activity [6]: tde | Activity [7]: inactive | Activity [8]: Active | Activity [9]: Active | Activity [10]: tde | Activity [11]: tde | Activity [12]: tde | Activity [13]: Active | Activity [14]: Active | Activity [15]: inactive | Activity [16]: inactive | Activity [17]: Dose-dependent effect | IC50 [17]: 21.3 µM | Ratio Ki [18]: 1.3 | Ratio Ki [19]: 20.8 | Ki [20]: 0.043 µM | Ki [21]: 0.073 µM | Ki [22]: 0.034 µM | Ki [23]: 0.0035 µM | Activity [24]: tde | Activity [25]: Active | Activity [26]: Active | Activity [27]: inactive | Activity [28]: inactive | Activity [29]: inactive | Activity [30]: Active | Activity [31]: Active

Ratio Ki [19]: 4.5 | Ki [21]: 0.038 µM | Ki [22]: 0.029 µM | Ki [23]: 0.0078 µM
SMILES: OCC[C@@H]1CN(CC2CCCCC2)CCN1Cc1ccc(-c2ccccc2)cc1
Activity [32]: tde | Activity [33]: tde | Activity [34]: tde | Activity [35]: Active | Activity [36]: Active | Activity [37]: inactive | Activity [16]: inactive | Activity [17]: Dose-dependent effect | IC50 [17]: 13 µM | Ratio Ki [18]: 1.3 | Ki [20]: 0.039 µM | Activity [38]: Active | Activity [39]: Active | Activity [40]: inactive | Activity [41]: inactive | Activity [42]: Active | Activity [43]: Active | Activity [44]: inactive | Activity [45]: inactive | Activity [46]: inactive | Activity [47]: tde | Activity [48]: inactive | Activity [49]: inactive | Activity [50]: tde | Activity [51]: inactive | Activity [52]: inactive | Activity [53]: Active
